The test system of test [1] is UBR1. Nature of the test: Inhibition of R-nsP4 degradation by in vitro transcription/translation method. The conditions noted are these: compound 1 uM, 30° C. for 40 minutes, DHFR-Ub-R-nsP4 plasmid, compared to the control. The test is classed as biochemical. As to the method: A TnT® Quick Coupled Transcription/Translation System kit was used to confirm the R-nsP4 expression of the compounds. After a pre-mix was made using Transcend Biotin-Lysyl-tRNA, methionine, bestatin, a TnTquick Master mix and a DHFR-Ub-R-nsP4 plasmid, the pre-mix was mixed with a compound (1 uM). After each sample was reacted at 30° C. for 40 minutes, a 5×SDS loading dye was added thereto. After the resulting mixture was reacted at 95° C. for 2 minutes, 5 uL was taken and aliquoted into each well of an acrylamide gel, and then an immunoblotting method was performed, and the experimental results are illustrated in [FIG. 2]. For an in vitro transcription/translation method, a representative experiment was schematized from three or more independent experiments.

In test [2] the target is T1, UBR1 (Rattus norvegicus, UniProt A0A8I5ZK69).
T1 construct: endogenous in cells; host or cells: L6 rat muscle-derived cells
T1 sequence (A0A8I5ZK69 1-1749): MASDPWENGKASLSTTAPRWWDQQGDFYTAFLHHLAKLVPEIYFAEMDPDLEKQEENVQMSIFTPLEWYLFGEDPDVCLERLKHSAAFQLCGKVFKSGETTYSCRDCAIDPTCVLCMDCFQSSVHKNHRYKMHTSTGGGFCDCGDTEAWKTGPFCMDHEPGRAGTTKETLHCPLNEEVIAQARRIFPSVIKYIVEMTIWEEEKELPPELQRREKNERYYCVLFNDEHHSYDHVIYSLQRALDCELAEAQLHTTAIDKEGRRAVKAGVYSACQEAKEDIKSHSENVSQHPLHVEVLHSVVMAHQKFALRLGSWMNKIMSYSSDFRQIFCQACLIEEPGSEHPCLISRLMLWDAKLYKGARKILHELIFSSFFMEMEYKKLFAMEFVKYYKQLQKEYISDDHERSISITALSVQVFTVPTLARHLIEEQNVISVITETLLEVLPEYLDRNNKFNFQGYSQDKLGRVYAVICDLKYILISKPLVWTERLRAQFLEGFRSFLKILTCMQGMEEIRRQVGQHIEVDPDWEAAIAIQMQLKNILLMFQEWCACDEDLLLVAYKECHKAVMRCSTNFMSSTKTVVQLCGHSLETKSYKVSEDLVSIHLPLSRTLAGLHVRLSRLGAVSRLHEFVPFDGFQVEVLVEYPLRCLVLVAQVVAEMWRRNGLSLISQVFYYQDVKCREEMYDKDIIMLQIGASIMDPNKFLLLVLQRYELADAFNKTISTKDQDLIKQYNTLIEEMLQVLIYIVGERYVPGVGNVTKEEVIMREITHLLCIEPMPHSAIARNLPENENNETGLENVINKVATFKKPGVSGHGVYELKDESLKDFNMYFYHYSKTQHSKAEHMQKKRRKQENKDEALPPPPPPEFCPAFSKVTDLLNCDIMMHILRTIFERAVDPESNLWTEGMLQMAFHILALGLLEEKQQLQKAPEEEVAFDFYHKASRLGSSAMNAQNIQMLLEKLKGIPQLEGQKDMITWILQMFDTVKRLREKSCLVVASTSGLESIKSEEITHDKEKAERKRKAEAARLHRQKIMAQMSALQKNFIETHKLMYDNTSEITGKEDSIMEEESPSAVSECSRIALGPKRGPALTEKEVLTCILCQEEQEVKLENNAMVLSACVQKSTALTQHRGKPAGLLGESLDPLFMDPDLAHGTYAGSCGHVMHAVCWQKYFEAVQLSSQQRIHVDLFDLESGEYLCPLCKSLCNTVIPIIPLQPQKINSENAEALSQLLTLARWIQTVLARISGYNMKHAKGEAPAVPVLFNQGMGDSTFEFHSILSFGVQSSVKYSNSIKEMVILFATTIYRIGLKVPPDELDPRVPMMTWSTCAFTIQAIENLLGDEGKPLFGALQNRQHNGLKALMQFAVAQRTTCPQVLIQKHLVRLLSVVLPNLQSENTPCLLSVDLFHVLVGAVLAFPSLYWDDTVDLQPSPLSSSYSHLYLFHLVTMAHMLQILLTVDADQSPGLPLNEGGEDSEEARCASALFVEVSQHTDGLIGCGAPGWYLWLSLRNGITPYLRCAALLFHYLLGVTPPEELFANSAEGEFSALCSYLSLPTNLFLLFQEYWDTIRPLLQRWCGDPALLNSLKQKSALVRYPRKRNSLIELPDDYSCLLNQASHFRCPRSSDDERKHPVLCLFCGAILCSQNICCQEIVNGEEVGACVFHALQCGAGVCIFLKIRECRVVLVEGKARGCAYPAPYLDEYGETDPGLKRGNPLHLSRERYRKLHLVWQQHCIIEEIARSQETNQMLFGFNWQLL
Briefly: Inhibition of muscle cell actin degradation by immunoblotting (L6 cells). It counts as cell-based. The conditions noted are these: compound 5 uM alone, 24 hours, immunoblot. As to the method: To evaluate the actin degradation of compounds in muscle cells, a L6 cell line, which is a rat muscle-derived cell, was cultured using a DMEM medium containing 10% FBS and 1% streptomycin/penicillin in an incubator in which 5% carbon dioxide was maintained. In order to measure the UBR1 binding strength according to the treatment with a representative compound selected from the present compounds, cells were aliquoted into a 12-well plate. The cells were additionally cultured for 24 hours so as to be completely attached to the surface of the plate. […] To extract proteins from the collected cells, 50 uL of a lysis buffer (20 mM Tris, pH 7.4, 150 mM NaCl, 1% Triton-X-100, 2 mM NaF, 2 mM EDTA, 2 mM b-glycerophosphate, 5 mM sodium orthovanadate, 1 mM PMSF, leupeptin, aprotenin) was injected into each sample, and the cells were lysed. A sample buffer was added to each sample based on the measured total protein concentration, and the mixture was reacted at 100° C. for 5 minutes. After 5 uL was taken from the completely reacted sample and aliquoted into each well of an acrylamide gel, an immunoblotting method was performed, and the experimental results were illustrated in [FIG. 3]. For the immunoblotting method, a representative experiment was schematized from three or more independent experiments.
(A western blot detects proteins with antibodies after separation by electrophoresis.)

The subject of test [3] is L6 cell line. Briefly: Immunoblotting of muscle actin levels in L6 cells after MG132 treatment. The test is classed as cell-based, rat. The conditions noted are these: MG132 10 uM alone, 24 hours, immunoblot, compared to a control. The procedure:
A L6 cell line, which is a rat muscle-derived cell, was cultured using a DMEM medium containing 10% FBS and 1% streptomycin/penicillin in an incubator in which 5% carbon dioxide was maintained, and cells were aliquoted into a 12-well plate after the culture. The cells were additionally cultured for 24 hours so as to be completely attached to the surface of the plate. To confirm whether MG132 increased UBR1 binding, cells were collected after treatment with MG132 (10 uM) alone for 24 hours. To extract proteins from the collected cells, 50 uL of a lysis buffer (20 mM Tris, pH 7.4, 150 mM NaCl, 1% Triton-X-100, 2 mM NaF, 2 mM EDTA, 2 mM b-glycerophosphate, 5 mM sodium orthovanadate, 1 mM PMSF, leupeptin, aprotenin) was injected into each sample, and the cells were lysed. A sample buffer was added to each sample based on the measured total protein concentration, and the mixture was reacted at 100° C. for 5 minutes. After 5 uL was taken from the completely reacted sample and aliquoted into each well of an acrylamide gel, an immunoblotting method was performed, and the experimental results are illustrated in [FIG. 1].
For the immunoblotting method, a representative experiment was schematized from three or more independent experiments.
Referring to FIG. 1, it was confirmed that the levels of ACTA1, ACTC1, and ACTG2 were increased by MG132 compared to a control. Further, it was confirmed that the levels of ACTA1 and ACTG2 were increased when a UBR protein was knocked down. That is, it could be confirmed that muscle actin is an Arg/N-degron pathway substrate.

Molecules are shown by their SMILES. Peptide text beside a SMILES is read from it. * marks the point of attachment. Cbz = O=C(OCc1ccccc1)*

`COCCCCC(=O)Nc1cc(C(C)=O)ccc1Cl` [Compound 1, N-(5-acetyl-2-chlorophenyl)-5-methoxypentanamide]: the “level of R-nsP4” value in test [1] is given as “increased”. Further, the “level of ACTA1” value in test [2] is recorded as “further increased”.
Turning to `COCCCCC(=O)Nc1cc(C(N)=O)ccc1Cl` [Compound 2, 4-chloro-3-(5-methoxypentanamido)benzamide], the “level of R-nsP4” value in test [1] is “increased”. The “level of ACTA1” value in test [2] was “further increased”.
As to `CC(C)C[C@@H](C=O)NC(=O)[C@H](CC(C)C)NC(=O)[C@H](CC(C)C)NC(=O)OCc1ccccc1` [MG132] (Cbz-Leu-Leu-Leu-aldehyde), in test [3], the “level of ACTA1” value was “increased”, the “level of ACTC1” value is recorded as “increased” and the “level of ACTG2” value is listed as “increased”.

These data come from US12509420B2, “Compound as a UBR box domain ligand” (AUTOTAC INC., priority 2020, dated 2025).
